Experimental data taken from PMC9644403, “L-type Amino Acid Transporter 1 Utilizing Ferulic Acid Derivatives Show Increased Drug Delivery in the Mouse Pancreas Along with Decreased Lipid Peroxidation and Prostaglandin Production” (Molecular Pharmaceutics, 2022).
Marks after values point to notes of the source that are not given here.

What was measured:
[1] = HUVEC viability, WST-1 assay; assay type: cell-based, human; details: human, HUVEC cells; WST-1, 24 h, % of control, mean ± SD (n = 6–8)
Description: (§1) As a third in vitro toxicity study in the human blood circulation system, the effects of FA, D1, and D2 on the viability of human umbilical vein endothelial cells (HUVECs; RRID CVCL_2959; Lonza, Italy; Cat. no. CC-2517) were determined using the WST-1 assay (Takara, Takara Bio Europe, Europe, Saint-Germain-en-Laye, France), according to the previously published protocol.[32] Briefly, the cells were cultured according to the manufacturer’s guidelines with the following ingredients: EGM-2-medium + bullet kit (Lonza, Clonetics, Italy), accutase (Sigma-Aldrich, Germany), and HEPES-buffered saline solution (Lonza, Basel, Switzerland). For the assay, the cells were seeded at the density of 7 500 HUVECs per well on 96-well plates and cultured for 24 h to obtain 70% confluency. Subsequently, the cells were treated with studied compounds in multiplicate (n = 6–8) at the concentration of 0.1–100 μM in the growth medium for 24 h (37 °C, 5% CO2). Cells with untreated growth medium represented 100% viability, whereas cells treated with medium containing 0.5% (v/v) methanol served as a negative control for drug solvent. After treating cells for 24 h, medium was removed, the cells were washed with the culture medium (100 μl/well), and 100 μL of WST-1 reagent dissolved in culture medium was added into each well. The plates were incubated at 37 °C with 5% CO2 for 2 h, after which absorbance values were measured at the 450 nm wavelength using a microplate reader (iMARK, Bio-Rad). Additionally, the effects of treatments on HUVEC morphology were examined microscopically using a phase-contrast Opta-Tech inverted microscope equipped with OptaView 7 software (Opta-Tech, Warsaw, Poland) for image analysis.

HUVECs = test: HUVEC morphology, phase-contrast microscopy; assay type: cell-based, human; details: 24 h incubation
Description: as §1

[2] = mouse plasma, equilibrium dialysis, 4 h incubation, n = 2; cited from earlier work
[3] = mice, cited from earlier work; for AUCtotal plasma of released FA / AUCu, plasma of released FA / Cmax, u plasma of released FA: FA released from the dosed derivative; for AUCtotal plasma of released FA / AUCu, plasma of released FA / Cmax, u plasma of released FA / tmax plasma / Cmax / AUCu, plasma / Cmax, u plasma: 25 μmol/kg i.p.; for AUCtotal plasma: 25 μmol/kg i.p. bolus; for peak concentration in plasma: after a high bolus dose (25 μmol/kg i.p.); for Cmax: read-out: Cmax plasma; for AUCu, plasma / Cmax, u plasma: unbound

Row | SMILES | viability at 24 h, 50 µM [1] [%] | viability at 24 h, 100 µM [1] [%] | HUVEC morphology at 100 μM (HUVECs) | HUVEC morphology at 25–50 μM (HUVECs) | fu, plasma (%) [2] | AUCtotal plasma of released FA [3] [nmol·min/mL] | AUCu, plasma of released FA [3] [nmol·min/mL] | Cmax, u plasma of released FA [3] [µM] | AUCtotal plasma [3] [nmol·min/mL] | tmax plasma [3] | peak concentration in plasma [3] [µM] | Cmax [3] [µM] | AUCu, plasma [3] [nmol·min/mL] | Cmax, u plasma [3] [µM] | HUVEC morphology at 50 μM (HUVECs)
1 | COc1cc(C=CC(=O)NCc2cccc(CC(N)C(=O)O)c2)ccc1O (stereo not shown) [derivative 1] | 89 ± 7.27 | 80.7 ± 4.26 | slightly more rounded, bright dead cells were observed | did not cause significant changes in HUVEC morphology | 19.66–30.62 ^b % | 507 | 54 | 0.3 | 1042 | 10 min | 41.9 | 41.9 | 262 | 10.5 | –
2 | COc1cc(C=CC(=O)O)ccc1O [ferulic acid, 4-hydroxy-3-methoxycinnamic acid] | – | 62.6 ± 15 | more elongated cells were seen | did not change cell morphology | 9.94–11.51 ^b % | – | – | – | 591 | 10 min | 33.2 | 33.2 | 63 | 3.6 | –
3 | COc1cc(/C=C/C(=O)Nc2cccc(C[C@H](N)C(=O)O)c2)ccc1O [derivative 2] | 73.5 ± 14.7 | 60.3 ± 16.9 | reduced the number of viable cells and cell density as well as caused an irregular shape with cytoplasm leakage | – | 8.37–9.01 ^b % | 75 | 8 | 0.2 | 463 | 10 (released 10) min | – | 21.1 | 40 | 1.8 | first brighter cells appearing
